Assay results reported in paper PMC8987157, “Regioselective One-Pot Synthesis of Hydroxy-(S)-Equols Using Isoflavonoid Reductases and Monooxygenases and Evaluation of the Hydroxyequol Derivatives as Selective Estrogen Receptor Modulators and Antioxidants” (Frontiers in Bioengineering and Biotechnology, 2022).
“And” between values parts separate entries of the source, which are not always exact repeats. Identical values can stand only once.

Experiments:
[1] = DPPH radical scavenging assay
Method: DPPH radical scavenging assay. In each well of polystyrene flat-bottom 96-well plates, 200 μL of solution containing 0.1 mM 2,2-diphenyl-1-(2,4,6-trinitrophenyl)hydrazin-1-yl (DPPH) radical, 50% (v/v) MeOH, 10% (v/v) DMSO, specific amount of compounds, and 1x concentration of phosphate buffered saline (PBS) was made. The PBS was prepared with 4x concentration of its original recipe with pH 7.4 and diluted by adding 50 μL in the solution mixture. The plates were incubated at 37°C for 30 min. The OD520 and OD495 of incubated plates were measured. The radical scavenging activity was defined as (OD520/OD495)DMSO- OD520/OD495. (OD520/OD495)DMSO is the OD520/OD495 of the DMSO control without antioxidative compounds. The radical scavenging activity values were normalized with the value of the positive control (1 mM of L-ascorbic acid). The data were triplicated, and the average values were regressed using the following formula.
where E/E 0 is the normalized radical scavenging activity, [L] is the concentration of compounds, and n is the Hill’s coefficient, and EC50 is the value of effective concentration at E/E 0 = 0.5.

ERα LBD = molecular target: T1, ERα LBD (Homo sapiens, UniProt P03372); assay: ERα-SRC1 agonistic yeast two hybrid (Y2H) assay, β-galactosidase activity; assay type: cell-based; settings: for EC50: Y2H ERα-SRC1, yeast L40, triplicates
T1 construct: expressed in transfected cells; host or cells: Saccharomyces cerevisiae L40
T1 sequence (P03372 312-595): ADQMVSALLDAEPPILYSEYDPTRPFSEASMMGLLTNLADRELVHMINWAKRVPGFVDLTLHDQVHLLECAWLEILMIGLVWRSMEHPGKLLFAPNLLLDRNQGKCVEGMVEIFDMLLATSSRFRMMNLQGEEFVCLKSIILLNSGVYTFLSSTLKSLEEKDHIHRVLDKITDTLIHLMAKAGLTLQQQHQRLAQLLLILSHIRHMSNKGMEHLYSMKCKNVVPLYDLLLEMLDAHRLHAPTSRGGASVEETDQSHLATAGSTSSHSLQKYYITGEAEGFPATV
T1 sequence (Q15788 613-773 partner limits assumed): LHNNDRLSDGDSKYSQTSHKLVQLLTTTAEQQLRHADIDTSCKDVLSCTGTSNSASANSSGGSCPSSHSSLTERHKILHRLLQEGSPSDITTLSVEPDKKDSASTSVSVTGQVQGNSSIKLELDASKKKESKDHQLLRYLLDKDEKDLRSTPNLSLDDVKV
Description: (§1) Microbial strains. Cloning information and used primers for the construction of EcHpaBC and MaFMO encoded vectors are listed in Supplementary Table S1. […] Three EcHpaB mutants were made by site-directed mutagenesis using the listed overlapping primer-containing intended mutations. […] These sets of two vectors (pBTM116:LexA DBD-ERα LBD & pVP16:VP16 AD-(Gly4Ser)2-tSRC1 or pBTM116:LexA DBD-ERβ LBD & pVP16:VP16 AD-(Gly4Ser)2-tSRC1) were transformed in the L40 strains.
(§2) Yeast-two-hybrid assay. The transformed L40 strains were grown in synthetic leucine and tryptophan drop-out (SD L^−W^-) media. […] These plates were incubated at 30 °C with shaking of 1,000 rpm for overnight (∼20 h). After the incubation, the cultures were centrifuged, and the supernatants were discarded. In each well, 500 μL Z-buffer (60 mM Na2HPO4, 40 mM NaH2PO4, 10 mM KCl, and 1 mM MgSO4; pH 7.0) with 1 mM dithiothreitol (DTT) was filled and resuspended. 50 μL of each suspension was taken for OD600 measurement before chloroform treatment. (This value was not used for the measurement of the Miller unit.) Chloroform 50 μL was added to each 450 μL of the suspension, and the solution mixture was shaked for 1 min at 1,000 rpm to disrupt the cell membrane. The disrupted suspensions were kept still at room temperature for 2 min, and 50 μL aqueous aliquots were taken. In polystyrene flat-bottomed 96-well plate, each well was charged with 100 μL of Z-buffer with 1 mM DTT, 50 μL aqueous aliquot, and 50 μL of Z-buffer with 1 mM DTT and 0.4 mg/ml ortho-nitrophenyl-β-galactoside (ONPG). Initially, OD600 of all the wells was measured, and subsequently, OD420 of the same wells was measured for 30 min with a minute interval. […] E/E0=ε/1+10^n(log(EC50)−log([L])),
(§3) where E/E 0 is the normalized Miller unit and ε is the maximum response relative to E2 (ε(E2) = 1). [L] is the concentration of ligands and n is the Hill’s coefficient.

ERβ LBD = molecular target: T2, ERβ LBD (Homo sapiens, UniProt Q92731); assay: ERβ-SRC1 agonistic yeast two hybrid (Y2H) assay, β-galactosidase activity; assay type: cell-based; settings: for β/α ratio of EC50^-1: ERβ over ERα, Y2H; for EC50: Y2H ERβ-SRC1, yeast L40, triplicates
T2 construct: LexA DBD-ERβ LBD (264–510); expressed in transfected cells; host or cells: Saccharomyces cerevisiae L40
T2 sequence (Q92731 264-510, one chain of several): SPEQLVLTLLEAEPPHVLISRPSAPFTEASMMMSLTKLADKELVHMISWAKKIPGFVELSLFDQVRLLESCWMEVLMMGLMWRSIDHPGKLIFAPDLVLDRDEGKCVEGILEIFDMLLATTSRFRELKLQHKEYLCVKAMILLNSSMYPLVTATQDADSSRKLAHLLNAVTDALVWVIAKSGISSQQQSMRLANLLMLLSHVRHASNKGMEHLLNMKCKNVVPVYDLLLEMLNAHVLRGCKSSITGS
Description: as §1, §2, §3

ERα = tested on: ERα; set-up: method as in Lee et al., 2017; settings: ref Lee et al., 2017; cited from earlier work

fold higher EC50 than (S)-equol (ERα LBD; ERα) | EC50 (ERα LBD) | fold higher EC50 than (S)-equol (ERβ LBD; ERβ) | β/α ratio of EC50^-1 (ERβ LBD) | EC50 (ERβ LBD) | response in Y2H agonist assay (ERα LBD; ERα, concentrations in the range of 10^–8∼10^–3 M) | response in Y2H agonist assay (ERβ LBD; ERβ, concentrations in the range of 10^–8∼10^–3 M) | lower β/α ratio response than that of 17β-estradiol (ERβ LBD) [%] | weaker estrogenic activity than E2 (ERα LBD; ERα) | weaker estrogenic activity than E2 (ERβ LBD; ERβ) | SMILES | antioxidative activity higher than 3′HD [1] | binding affinity ERα versus ERβ (ERα)
30∼200 fold | 10 to 100 µM and 20.6 µM | 30∼200 fold | 1.15 | 10 to 100 µM and 17.9 µM | – | – | – | – | – | Oc1ccc2c(c1)OC[C@H](c1ccc(O)c(O)c1)C2 [3'-hydroxy-(S)-equol, 3′-hydroxy-(S)-equol] | more than 40% | –
– | – | – | – | – | did not show any response | did not show any response | – | – | – | Oc1ccc([C@H]2COc3cc(O)cc(O)c3C2)cc1 [5-hydroxy-(S)-equol] | – | higher binding affinity to ERα than ERβ
30∼200 fold | 10 to 100 µM and 102 µM | 30∼200 fold | 1.00 | 10 to 100 µM and 102 µM | – | – | 10 | – | – | Oc1ccc([C@H]2COc3cc(O)c(O)cc3C2)cc1 [6-hydroxy-(S)-equol] | – | –
– | 0.665 µM | – | 1.31 | 0.506 µM | – | – | – | about 3 orders of magnitude | about 3 orders of magnitude | Oc1ccc([C@H]2COc3cc(O)ccc3C2)cc1 [(S)-equol] | – | –
